One assay concerns the target mouse TAAR1 (Mus musculus, UniProt Q923Y8). As to the kind of experiment: Radioligand binding on membranes of HEK293 cells stably expressing mouse TAAR1.
Another assay concerns the target rat TAAR1 (Rattus norvegicus, UniProt Q923Y9). Put plainly: Radioligand binding on membranes of HEK293 cells stably expressing rat TAAR1.

These results are taken from patent publication US7902238B2, “2-aminooxazolines as TAAR1 ligands” (Hoffmann-La Roche Inc., priority 2007, dated 2011).

By Ki is commonly meant a dissociation constant, usually derived from enzyme kinetics or from competition with a known ligand.

Chain of rat TAAR1 (Q923Y9 whole entry): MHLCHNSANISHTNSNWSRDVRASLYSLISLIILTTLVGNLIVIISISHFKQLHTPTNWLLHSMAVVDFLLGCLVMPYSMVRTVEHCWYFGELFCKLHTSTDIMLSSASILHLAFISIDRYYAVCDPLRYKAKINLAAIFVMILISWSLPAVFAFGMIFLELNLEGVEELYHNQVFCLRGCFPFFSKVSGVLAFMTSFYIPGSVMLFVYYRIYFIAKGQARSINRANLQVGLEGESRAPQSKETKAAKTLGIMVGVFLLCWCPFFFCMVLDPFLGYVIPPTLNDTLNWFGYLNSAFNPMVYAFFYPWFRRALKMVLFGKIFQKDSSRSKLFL
Chain of mouse TAAR1 (Q923Y8 whole entry): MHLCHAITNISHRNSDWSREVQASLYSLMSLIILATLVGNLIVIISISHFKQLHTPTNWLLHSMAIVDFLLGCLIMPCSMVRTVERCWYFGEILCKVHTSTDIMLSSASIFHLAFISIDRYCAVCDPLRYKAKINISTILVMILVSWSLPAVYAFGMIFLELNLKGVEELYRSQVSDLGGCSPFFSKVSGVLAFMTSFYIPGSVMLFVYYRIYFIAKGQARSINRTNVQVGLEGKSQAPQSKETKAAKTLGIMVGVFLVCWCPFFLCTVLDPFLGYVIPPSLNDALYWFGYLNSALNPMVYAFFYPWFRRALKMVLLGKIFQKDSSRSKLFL

For `NC1=N[C@@H](CNc2ccc(C(F)(F)F)cc2)CO1` [Example 132, (S)-4-[(4-Trifluoromethyl-phenylamino)-methyl]-4,5-dihydro-oxazol-2-ylamine], the figures for the Ki on mouse TAAR1 and at rat TAAR1 were 4.7 nM and 24.8 nM, respectively.
Taken in the same sequence, the figures for `CCN(C[C@H]1COC(N)=N1)c1ccc(C(F)(F)F)cc1` [Example 133, (S)-4-{[Ethyl-(4-trifluoromethyl-phenyl)-amino]-methyl}-4,5-dihydro-oxazol-2-ylamine] were 4.2 nM and 4.9 nM.
Take `CN(C[C@H]1COC(N)=N1)c1ccc(C(F)(F)F)cc1` [Example 134, (S)-4-{[Methyl-(4-trifluoromethyl-phenyl)-amino]-methyl}-4,5-dihydro-oxazol-2-ylamine]: the Ki stood at 5.7 nM at mouse TAAR1 and 3.6 nM on rat TAAR1.
The matching figures for `NC1=N[C@@H](CNc2cccc(Cl)n2)CO1` [Example 135, ((S)-2-Amino-4,5-dihydro-oxazol-4-ylmethyl)-(6-chloro-pyridin-2-yl)-amine]: 8.7 nM and 48.9 nM.
For the compound `COc1cc(N(C)C[C@@H]2COC(N)=N2)ccc1F` [Example 138, (R)-4-{[(4-Fluoro-3-methoxy-phenyl)-methyl-amino]-methyl}-4,5-dihydro-oxazol-2-ylamine], the Ki at mouse TAAR1 was determined as 4.4 nM; at rat TAAR1, 9.3 nM.
The matching figures for `CCN(C[C@@H]1COC(N)=N1)c1ccc(F)c(OC)c1` [Example 139, (R)-4-{[Ethyl-(4-fluoro-3-methoxy-phenyl)-amino]-methyl}-4,5-dihydro-oxazol-2-ylamine]: 4.1 nM and 1.6 nM.
Taken in the same sequence, the figures for `COc1cc(N(C)C[C@@H]2COC(N)=N2)ccc1Cl` [Example 140, (R)-4-{[(4-Chloro-3-methoxy-phenyl)-methyl-amino]-methyl}-4,5-dihydro-oxazol-2-ylamine] were 2.6 nM and 4.1 nM.
The matching figures for `CCN(C[C@@H]1COC(N)=N1)c1ccc(Cl)c(OC)c1` [Example 141, (R)-4-{[(4-Chloro-3-methoxy-phenyl)-ethyl-amino]-methyl}-4,5-dihydro-oxazol-2-ylamine]: 3.4 nM and 0.9 nM.
On to `CCN(C[C@H]1COC(N)=N1)c1ccc(F)cc1F` [Example 145, (S)-4-{[(2,4-Difluoro-phenyl)-ethyl-amino]-methyl}-4,5-dihydro-oxazol-2-ylamine], for which the Ki worked out at 8.2 nM on mouse TAAR1 and 4.8 nM on rat TAAR1.
The matching figures for `CN(C[C@H]1COC(N)=N1)c1ccc(F)cc1F` [Example 146, (S)-4-{[(2,4-Difluoro-phenyl)-methyl-amino]-methyl}-4,5-dihydro-oxazol-2-ylamine]: 3.1 nM and 6.2 nM.
Taken in the same sequence, the figures for `NC1=N[C@@H](CNc2ccc(F)cc2F)CO1` [Example 152, (S)-4-[(2,4-Difluoro-phenylamino)-methyl]-4,5-dihydro-oxazol-2-ylamine] were 3.2 nM and 7.2 nM.
Taken in the same sequence, the figures for `CN(C[C@@H]1COC(N)=N1)c1ccc(Cl)c(Cl)c1` [Example 157, (R)-4-{[(3,4-Dichloro-phenyl)-methyl-amino]-methyl}-4,5-dihydro-oxazol-2-ylamine] were 1.7 nM and 2.1 nM.
As to `CCN(C[C@@H]1COC(N)=N1)c1ccc(Cl)c(Cl)c1` [Example 158, (R)-4-{[(3,4-Dichloro-phenyl)-ethyl-amino]-methyl}-4,5-dihydro-oxazol-2-ylamine], the inhibitory constant (Ki) at mouse TAAR1 was found to be 2.2 nM; on rat TAAR1, 0.4 nM.
As for `CC(C)N(C[C@@H]1COC(N)=N1)c1ccc(Cl)c(Cl)c1` [Example 159, (R)-4-{[(3,4-Dichloro-phenyl)-isopropyl-amino]-methyl}-4,5-dihydro-oxazol-2-ylamine], the Ki came out at 5.3 nM on mouse TAAR1 and 1.4 nM on rat TAAR1.
The matching figures for `CN(C[C@H]1COC(N)=N1)c1cc(Cl)cc(Cl)c1` [Example 160, (S)-4-{[(3,5-Dichloro-phenyl)-methyl-amino]-methyl}-4,5-dihydro-oxazol-2-ylamine]: 1.3 nM and 0.9 nM.
